In patent publication US20220298213A1, “IN VIVO ENGINEERED CEREBLON PROTEIN” (Vividion Therapeutics, Inc., priority 2018, published 2022):
One block for each molecule: values may come before it.

How the values were obtained:
Format in all cases: binding
[1] = tested on: PRTN_A; test: Inhibition of probe labeling at screening concentration (Table 1); settings: 500 μM
Protocol: (§1) Cells were resuspended in cold PBS on ice and sonicated with a probe sonicator to achieve lysis. 200 μL of lysate containing 5 mg/ml proteome was treated with 2 μL of 100× compound stock in a 2-mL deep-well plate. The treated lysate was subsequently incubate at 25° C. for 1 hr with shaking at 600 rpm. The treated lysate was further incubated with 2 μL of 10 mM desthiobiotin iodoacetamide probe at 25° C. for 1 hr with shaking at 600 rpm. Next, the lysate was further treat with 20 μL of solution of PBS containing 11 mM MgSO4 and 2.5% Turbonuclease stock and incubated at 25° C. for 20 minutes with shaking at 600 rpm. 1.7 mL ice-cold acetone was added to each well and incubated at −20° C. for 2 hr, followed by max speed (4200 rpm) spin for 45 min. Acetone was then decanted and the plates were blotted to remove acetone. The plates were then dried in open air for 20 minutes. After drying, the plates were then covered with foil seal and stored at −80° C. overnight.

[2] = tested on: PRTN_B; test: as above; settings: 500 μM
Protocol: as §1

[3] = tested on: PRTN_C; test: as above; settings: 500 μM
Protocol: as §1

[4] = tested on: PRTN_D; test: as above; settings: 500 μM
Protocol: as §1

[5] = tested on: PRTN_E; test: as above; settings: 500 μM
Protocol: as §1

[6] = tested on: PRTN_F; test: as above; settings: 500 μM
Protocol: as §1

[7] = tested on: PRTN_G; test: as above; settings: 500 μM
Protocol: as §1

[8] = tested on: PRTN_H; test: as above; settings: 500 μM
Protocol: as §1

[9] = tested on: PRTN_I; test: as above; settings: 500 μM
Protocol: as §1

[10] = tested on: PRTN_J; test: as above; settings: 500 μM
Protocol: as §1

[11] = tested on: PRTN_K; test: as above; settings: 500 μM
Protocol: as §1

[12] = target: CRBN-287 (Homo sapiens, UniProt Q96SW2); test: as above; set-up: endogenous in cells; host or cells: cell lysate; settings: native folded protein, read-out: Percentage inhibition of probe labeling, CRBN_287
Protocol: as §1

[13] = target: CRBN-318 (Homo sapiens, UniProt Q96SW2); test: as above; set-up: endogenous in cells; host or cells: cell lysate; settings: native folded protein, read-out: Percentage inhibition of probe labeling, CRBN_318
Protocol: as §1

[14] = target: T1, CRBN Cys188 (Homo sapiens, UniProt Q96SW2); test: Inhibition of iodoacetamide probe labeling of CRBN cysteines, cell lysate (Table 3A)
T1 construct: endogenous in cells
Protocol: (§2) “X@Y” means that x % inhibition of iodoacetamide probe labeling was observed by treatment of cell lysate with the give compound in each row of the table for 1 h at a concentration of y micromolar. There was consistently high inhibition at C318 in addition to C287, which can be attributed to an allosteric inhibition.

[15] = target: T2, CRBN Cys205 (Homo sapiens, UniProt Q96SW2); test: as above; settings: cell lysate, 1 h
T2 construct: endogenous in cells
Protocol: as §2

[16] = target: T3, CRBN Cys219 (Homo sapiens, UniProt Q96SW2); test: as above
T3 construct: endogenous in cells
Protocol: as §2

[17] = target: T4, CRBN Cys234 (Homo sapiens, UniProt Q96SW2); test: as above; settings: cell lysate, 1 h
T4 construct: endogenous in cells
Protocol: as §2

[18] = target: T5, CRBN Cys287 (Homo sapiens, UniProt Q96SW2); test: as above
T5 construct: endogenous in cells
Protocol: as §2

[19] = target: T6, CRBN Cys318 (Homo sapiens, UniProt Q96SW2); test: as above
T6 construct: endogenous in cells
Protocol: as §2

[20] = target: T7, CRBN Cys366 (Homo sapiens, UniProt Q96SW2); test: as above; settings: 7.8 micromolar, cell lysate, 1 h
T7 construct: endogenous in cells
Protocol: as §2

[21] = 2.0 micromolar, cell lysate, 1 h
[22] = 7.8 micromolar, cell lysate, 1 h
[23] = 0.12 micromolar, cell lysate, 1 h

T3 sequence (Q96SW2 whole entry): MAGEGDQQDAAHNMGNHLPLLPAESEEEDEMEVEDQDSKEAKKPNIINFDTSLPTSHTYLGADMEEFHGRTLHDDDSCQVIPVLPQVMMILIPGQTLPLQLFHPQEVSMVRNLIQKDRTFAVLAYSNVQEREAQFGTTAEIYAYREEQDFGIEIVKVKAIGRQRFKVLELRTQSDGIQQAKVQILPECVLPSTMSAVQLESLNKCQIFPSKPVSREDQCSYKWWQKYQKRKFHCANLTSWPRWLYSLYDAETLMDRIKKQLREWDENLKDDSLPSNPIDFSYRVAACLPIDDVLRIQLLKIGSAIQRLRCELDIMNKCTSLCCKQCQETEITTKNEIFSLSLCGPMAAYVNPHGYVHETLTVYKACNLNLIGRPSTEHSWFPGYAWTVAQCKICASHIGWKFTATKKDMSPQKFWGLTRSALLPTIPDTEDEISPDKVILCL
T5 sequence (Q96SW2 whole entry): as above
T1 sequence (Q96SW2 whole entry): as above
Sequence of CRBN-287 (Q96SW2 whole entry): as above
T6 sequence (Q96SW2 whole entry): as above
Sequence of CRBN-318 (Q96SW2 whole entry): as above
T4 sequence (Q96SW2 whole entry): as above
T2 sequence (Q96SW2 whole entry): as above
T7 sequence (Q96SW2 whole entry): as above

SMILES: CCc1ccccc1-c1cccc(NC2CCN(C(=O)/C=C/CC(C)C)CC2)c1
Percentage inhibition of probe labeling, PRTN_A [1]: 10%
Percentage inhibition of probe labeling, PRTN_B [2]: 3%
Percentage inhibition of probe labeling, PRTN_C [3]: 14%
Percentage inhibition of probe labeling, PRTN_D [4]: 17%
Percentage inhibition of probe labeling, PRTN_E [5]: 12%
Percentage inhibition of probe labeling, PRTN_F [6]: 2%
Percentage inhibition of probe labeling, PRTN_G [7]: 13%
Percentage inhibition of probe labeling, PRTN_H [8]: 4%
Percentage inhibition of probe labeling, PRTN_I [9]: 14%
Percentage inhibition of probe labeling, PRTN_J [10]: 11%
Percentage inhibition of probe labeling, PRTN_K [11]: 22%
inhibition at 500 µM [12]: 98%
inhibition at 500 µM [13]: 96%

SMILES: C=CC(=O)N1CCC(Oc2cc(C)cc(-c3ccccc3OC)c2)CC1
Percentage inhibition of probe labeling, PRTN_A [1]: 7%
Percentage inhibition of probe labeling, PRTN_B [2]: 2%
Percentage inhibition of probe labeling, PRTN_C [3]: 18%
Percentage inhibition of probe labeling, PRTN_D [4]: 9%
Percentage inhibition of probe labeling, PRTN_E [5]: 11%
Percentage inhibition of probe labeling, PRTN_F [6]: 6%
Percentage inhibition of probe labeling, PRTN_G [7]: 13%
Percentage inhibition of probe labeling, PRTN_H [8]: 9%
Percentage inhibition of probe labeling, PRTN_I [9]: 7%
Percentage inhibition of probe labeling, PRTN_J [10]: 6%
Percentage inhibition of probe labeling, PRTN_K [11]: 13%
inhibition at 500 µM [12]: 94%
inhibition at 500 µM [13]: 94%

SMILES: C=CC(=O)N1CCC(Oc2cc(C)cc(-c3ccccc3)c2)CC1
Percentage inhibition of probe labeling, PRTN_A [1]: 5%
Percentage inhibition of probe labeling, PRTN_B [2]: −1%
Percentage inhibition of probe labeling, PRTN_C [3]: 15%
Percentage inhibition of probe labeling, PRTN_D [4]: 2%
Percentage inhibition of probe labeling, PRTN_E [5]: 2%
Percentage inhibition of probe labeling, PRTN_F [6]: −12%
Percentage inhibition of probe labeling, PRTN_G [7]: −8%
Percentage inhibition of probe labeling, PRTN_H [8]: −5%
Percentage inhibition of probe labeling, PRTN_I [9]: 0%
Percentage inhibition of probe labeling, PRTN_J [10]: −2%
Percentage inhibition of probe labeling, PRTN_K [11]: 17%
inhibition at 500 µM [12]: 72%
inhibition at 500 µM [13]: 76%

SMILES: COc1ccccc1-c1cc(OC2CCN(C(=O)/C(C#N)=C/C(C)C)CC2)cc(C(N)=O)c1 [Example A5]
inhibition at 2 µM [14, 21]: 22%
inhibition at 7.8 µM [14, 22]: 13%
inhibition at 31.2 µM ([14]; 31.2 micromolar, cell lysate, 1 h): 13%
inhibition at 125 µM ([14]; 125 micromolar, cell lysate, 1 h): 7%
inhibition at 0.49 µM ([14]; read-out: % inhibition of iodoacetamide probe labeling, Cys188): 17%
inhibition at 2 µM ([15]; 2.0 micromolar): 19%
inhibition at 7.8 µM ([15]; 7.8 micromolar): 36%
inhibition at 31.2 µM ([15]; 31.2 micromolar, read-out: % inhibition of iodoacetamide probe labeling, Cys205): 29%
inhibition at 125 µM ([15]; 125 micromolar, read-out: % inhibition of iodoacetamide probe labeling, Cys205): 37%
inhibition at 500 µM ([15]; 500 micromolar, read-out: % inhibition of iodoacetamide probe labeling, Cys205): 31%
inhibition at 0.49 µM ([16]; 0.49 micromolar, cell lysate, 1 h): 17%
inhibition at 7.8 µM [16, 22]: 13%
inhibition at 125 µM ([16]; 125 micromolar, cell lysate, 1 h, read-out: % inhibition of iodoacetamide probe labeling, Cys219): 25%
inhibition at 500 µM ([16]; 500 micromolar, cell lysate, 1 h, read-out: % inhibition of iodoacetamide probe labeling, Cys219): 13%
inhibition at 2 µM ([16]; read-out: % inhibition of iodoacetamide probe labeling, Cys219): 22%
inhibition at 2 µM ([17]; 2.0 micromolar): 19%
inhibition at 7.8 µM ([17]; 7.8 micromolar): 35%
inhibition at 31.2 µM ([17]; 31.2 micromolar, read-out: % inhibition of iodoacetamide probe labeling, Cys234): 37%
inhibition at 125 µM ([17]; 125 micromolar, read-out: % inhibition of iodoacetamide probe labeling, Cys234): 60%
inhibition at 500 µM ([17]; 500 micromolar, read-out: % inhibition of iodoacetamide probe labeling, Cys234): 25%
inhibition at 0.12 µM [18, 23]: 70%
inhibition at 2 µM ([18]; 2.0 micromolar, cell lysate, 1 h, read-out: % inhibition of iodoacetamide probe labeling, Cys287): 93%
inhibition at 7.8 µM [18, 22]: 96%
inhibition at 31.2 µM ([18]; 31.2 micromolar, cell lysate, 1 h, read-out: % inhibition of iodoacetamide probe labeling, Cys287): 98%
inhibition at 125 µM ([18]; 125 micromolar, cell lysate, 1 h, read-out: % inhibition of iodoacetamide probe labeling, Cys287): 99%
inhibition at 500 µM ([18]; 500 micromolar, cell lysate, 1 h, read-out: % inhibition of iodoacetamide probe labeling, Cys287): 99%
inhibition at 0.49 µM ([18]; read-out: % inhibition of iodoacetamide probe labeling, Cys287): 83%
inhibition at 0.12 µM [19, 23]: 77%
inhibition at 2 µM [19, 21]: 85%
inhibition at 7.8 µM [19, 22]: 93%
inhibition at 31.2 µM ([19]; 31.2 micromolar, cell lysate, 1 h, read-out: % inhibition of iodoacetamide probe labeling, Cys318): 94%
inhibition at 125 µM ([19]; 125 micromolar, cell lysate, 1 h, read-out: % inhibition of iodoacetamide probe labeling, Cys318): 95%
inhibition at 500 µM ([19]; 500 micromolar, cell lysate, 1 h, read-out: % inhibition of iodoacetamide probe labeling, Cys318): 96%
inhibition at 0.49 µM ([19]; read-out: % inhibition of iodoacetamide probe labeling, Cys318, 0.49 micromolar, cell lysate, 1 h): 76%
inhibition at 7.8 µM [20]: -22%

More lines, main results first:

inhibition at 500 µM [12]: 97%
inhibition at 500 µM [13]: 98%
SMILES: C=CC(=O)N1CCC(Nc2cc(C(N)=O)cc(-c3ccccc3CC)c2)CC1
Percentage inhibition of probe labeling, PRTN_A [1]: −2%
Percentage inhibition of probe labeling, PRTN_B [2]: 0%
Percentage inhibition of probe labeling, PRTN_C [3]: 19%
Percentage inhibition of probe labeling, PRTN_D [4]: 18%
Percentage inhibition of probe labeling, PRTN_E [5]: 8%
Percentage inhibition of probe labeling, PRTN_F [6]: 4%
Percentage inhibition of probe labeling, PRTN_G [7]: 6%
Percentage inhibition of probe labeling, PRTN_H [8]: 6%
Percentage inhibition of probe labeling, PRTN_I [9]: −1%
Percentage inhibition of probe labeling, PRTN_J [10]: 7%
Percentage inhibition of probe labeling, PRTN_K [11]: 12%

inhibition at 500 µM [12]: 69%
inhibition at 500 µM [13]: 71%
SMILES: C=CC(=O)N1CCC(Cc2cccc(-c3ccccc3NC(C)=O)c2)CC1
Percentage inhibition of probe labeling, PRTN_A [1]: 8%
Percentage inhibition of probe labeling, PRTN_B [2]: 8%
Percentage inhibition of probe labeling, PRTN_C [3]: 3%
Percentage inhibition of probe labeling, PRTN_D [4]: 8%
Percentage inhibition of probe labeling, PRTN_E [5]: 9%
Percentage inhibition of probe labeling, PRTN_F [6]: 7%
Percentage inhibition of probe labeling, PRTN_G [7]: 12%
Percentage inhibition of probe labeling, PRTN_H [8]: 2%
Percentage inhibition of probe labeling, PRTN_I [9]: −1%
Percentage inhibition of probe labeling, PRTN_J [10]: 21%
Percentage inhibition of probe labeling, PRTN_K [11]: 20%
